target: T1, hFXR (Homo sapiens, UniProt Q96RI1); assay: In Vitro FXR Assay (TK); type: cell-based; conditions: CV-1 cells transfected with hFXR, hRXR, TK-ECRE-luc and pCMX-YFP; incubated with compound for 18 hrs; luminescence
T1 construct: expressed in transfected cells; host or cells: CV-1 cells
T1 sequence (Q96RI1 1-486): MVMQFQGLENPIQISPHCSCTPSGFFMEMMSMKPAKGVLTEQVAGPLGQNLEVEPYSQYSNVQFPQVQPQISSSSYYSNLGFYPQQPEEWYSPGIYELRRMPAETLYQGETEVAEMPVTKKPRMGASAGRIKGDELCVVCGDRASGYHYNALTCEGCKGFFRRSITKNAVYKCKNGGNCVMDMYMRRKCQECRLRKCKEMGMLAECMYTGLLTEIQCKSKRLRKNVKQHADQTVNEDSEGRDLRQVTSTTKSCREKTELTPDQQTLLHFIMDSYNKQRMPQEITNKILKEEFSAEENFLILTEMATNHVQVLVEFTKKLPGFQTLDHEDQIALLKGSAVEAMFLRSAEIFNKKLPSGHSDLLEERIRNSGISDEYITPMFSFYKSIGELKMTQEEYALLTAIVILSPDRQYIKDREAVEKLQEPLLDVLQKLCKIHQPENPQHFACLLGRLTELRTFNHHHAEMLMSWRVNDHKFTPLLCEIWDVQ
T1 sequence (P19793 1-462 partner): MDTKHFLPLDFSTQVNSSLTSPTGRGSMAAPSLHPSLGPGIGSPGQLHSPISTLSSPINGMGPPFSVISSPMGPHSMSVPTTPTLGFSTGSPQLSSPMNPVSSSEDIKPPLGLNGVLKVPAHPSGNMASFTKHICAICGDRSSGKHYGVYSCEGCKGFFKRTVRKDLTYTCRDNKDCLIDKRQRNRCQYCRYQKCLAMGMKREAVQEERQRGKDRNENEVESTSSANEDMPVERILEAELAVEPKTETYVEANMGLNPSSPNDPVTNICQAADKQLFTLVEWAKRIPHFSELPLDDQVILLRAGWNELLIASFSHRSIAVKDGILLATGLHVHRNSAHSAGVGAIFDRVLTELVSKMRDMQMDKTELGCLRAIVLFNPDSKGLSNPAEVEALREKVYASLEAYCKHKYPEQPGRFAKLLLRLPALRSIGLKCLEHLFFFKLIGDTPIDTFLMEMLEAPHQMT
Protocol: Example B-1: In Vitro FXR Assay (TK)
CV-1 cells were seeded at a density of 2,000,000 cells in a T175 flask with DMEM+10% charcoal double-stripped FBS and incubated at 37° C. in 5% CO2 for 18 h (O/N).
After 18 h of incubation, the medium in the T175 flask was changed with fresh DMEM+10% charcoal super-stripped serum. In a polypropylene tube, 2500 μL OptiMEM (Life Technologies, Cat #31985-062) was combined with expression plasmids for hFXR, hRXR, TK-ECRE-luc and pCMX-YFP. The tube was then briefly vortexed and incubated at room temperature for 5 minutes. Transfection reagent (X-tremeGENE HP from Roche, Cat #06 366 236 001) was added to the OptiMEM/plasmid mixture vortexed and incubated at room temperature for 20 minutes. Following incubation, the transfection reagent/DNA mixture complex was added to cells in the T175 flask and the cells were incubated at 37° C. in 5% CO2 for 18 h (O/N).
Compounds were serially diluted in DMSO and added to transfected CV-1 cells. The cells were then incubated for 18 hrs. The next day cells were lysed and examined for luminescence.

Row | SMILES | EC50 [nM]
1 | COc1ccc(C23CCC(CN(c4cc(-c5cnc(C(C)(C)C)s5)ccn4)C(=O)[C@H]4CC[C@H](CC(=O)O)CC4)(CC2)CC3)cc1C [Compound 4.17, trans-2-(4-((4-(2-(tert-Butyl)thiazol-5-yl)pyridin-2-yl)((4-(4-methoxy-3-methylphenyl)bicyclo[2.2.2]octan-1-yl)methyl)carbamoyl)cyclohexyl)acetic acid] | ≤ 50
2 | COc1ccc(C23CCC(CN(c4cccc(-n5cnc(C6CC6)c5)c4)C(=O)[C@H]4CC[C@H](CC(=O)O)CC4)(CC2)CC3)cc1C [Compound 4.29, trans-2-(-4-((3-(4-Cyclopropyl-1H-imidazol-1-yl)phenyl)((4-(4-methoxy-3-methylphenyl)bicyclo[2.2.2]octan-1-yl)methyl)carbamoyl)cyclohexyl)acetic acid] | ≤ 50
3 | COc1ccc(C23CCC(CN(C(=O)[C@@H]4CCC[C@@H](C(=O)O)C4)c4cc(-c5cnn(C(C)C)c5)ccn4)(CC2)CC3)cc1C (relative stereo) [Compound 3.06, trans-3-((4-(1-Isopropyl-1H-pyrazol-4-yl)pyridin-2-yl)((4-(4-methoxy-3-methylphenyl)bicyclo[2.2.2]octan-1-yl)methyl)carbamoyl)cyclohexanecarboxylic acid] | 50 to 1000
4 | COc1ccc(C23CCC(CN(c4cccc(-c5cnn(C(C)(C)C)c5)c4)C(=O)[C@H]4CC[C@H](CC(=O)O)CC4)(CC2)CC3)cc1C [Compound 2.06, trans-2-(4-((3-(1-(tert-Butyl)-1H-pyrazol-4-yl)phenyl)((4-(4-methoxy-3-methylphenyl)bicyclo[2.2.2]octan-1-yl)methyl)carbamoyl)cyclohexyl)acetic acid] | ≤ 50
5 | COc1ccc(C23CCC(CN(c4cc(-n5cnc(C(C)C)n5)ccn4)C(=O)[C@H]4CC[C@H](CC(=O)O)CC4)(CC2)CC3)cc1C [Compound 4.26, trans-2-(4-((4-(3-Isopropyl-1H-1,2,4-triazol-1-yl)pyridin-2-yl)((4-(4-methoxy-3-methylphenyl)bicyclo[2.2.2]octan-1-yl)methyl)carbamoyl)cyclohexyl)acetic acid] | 50 to 1000
6 | COc1ccc(C23CCC(CN(c4cc(-c5cnc(C6CC6)s5)ccn4)C(=O)[C@H]4CC[C@H](CC(=O)O)CC4)(CC2)CC3)cc1C [Compound 4.15, trans-2-(4-((4-(2-Cyclopropylthiazol-5-yl)pyridin-2-yl)((4-(4-methoxy-3-methylphenyl)bicyclo[2.2.2]octan-1-yl)methyl)carbamoyl)cyclohexyl)acetic acid] | ≤ 50
7 | COc1ccc(C23CCC(CN(c4cc(-c5cnn(C(C)C)c5)ncn4)C(=O)[C@H]4CC[C@H](CC(=O)O)CC4)(CC2)CC3)cc1C [Compound 3, trans-2-(4-((6-(1-Isopropyl-1H-pyrazol-4-yl)pyrimidin-4-yl)((4-(4-methoxy-3-methylphenyl)bicyclo[2.2.2]octan-1-yl)methyl)carbamoyl)cyclohexyl)acetic acid] | 50 to 1000
8 | COc1ccc([C@H]2CC[C@H](CN(c3cccc(-c4cnn(C(C)C)c4)c3)C(=O)[C@H]3CC[C@H](C(=O)O)CC3)CC2)cc1C [Compound 2.01, trans-4-((3-(1-Isopropyl-1H-pyrazol-4-yl)phenyl)((trans-4-(4-methoxy-3-methylphenyl)cyclohexyl)methyl)carbamoyl) cyclohexanecarboxylic acid] | ≤ 50
9 | COc1ccc(C23CCC(CN(c4cc(-c5nc(C(C)C)no5)ccn4)C(=O)[C@H]4CC[C@H](CC(=O)O)CC4)(CC2)CC3)cc1C [Compound 4.20, trans-2-(4-((4-(3-Isopropyl-1,2,4-oxadiazol-5-yl)pyridin-2-yl)((4-(4-methoxy-3-methylphenyl)bicyclo[2.2.2]octan-1-yl)methyl)carbamoyl)cyclohexyl)acetic acid] | 50 to 1000
10 | COc1ccc(C23CCC(CN(c4nccc(-c5cnn(C(C)C)c5)n4)C(=O)[C@H]4CC[C@H](CC(=O)O)CC4)(CC2)CC3)cc1C (relative stereo) [Compound 4.09, trans-2-(4-((4-(1-Isopropyl-1H-pyrazol-4-yl)pyrimidin-2-yl)((4-(4-methoxy-3-methylphenyl)bicyclo[2.2.2]octan-1-yl)methyl)carbamoyl)cyclohexyl)acetic acid] | ≤ 50
11 | COc1ccc(C23CCC(CN(c4cc(-c5noc(C(C)C)n5)ccn4)C(=O)[C@H]4CC[C@H](CC(=O)O)CC4)(CC2)CC3)cc1C [Compound 4.21, trans-2-(4-((4-(5-lsopropyl-1,2,4-oxadiazol-3-yl)pyridin-2-yl)((4-(4-methoxy-3-methylphenyl)bicyclo[2.2.2]octan-1-yl)methyl)carbamoyl)cyclohexyl)acetic acid] | 50 to 1000
12 | COc1ccc(C23CCC(CN(c4cc(-n5ccc(C(C)C)n5)ccn4)C(=O)[C@H]4CC[C@H](CC(=O)O)CC4)(CC2)CC3)cc1C [Compound 4.24, trans-2-(4-((4-(3-Isopropyl-1H-pyrazol-1-yl)pyridin-2-yl)((4-(4-methoxy-3-methylphenyl)bicyclo[2.2.2]octan-1-yl)methyl)carbamoyl)cyclohexyl)acetic acid] | 50 to 1000
13 | COc1ccc([C@H]2CC[C@H](CN(c3cccc(-c4cnn(C(C)(C)C)c4)c3)C(=O)[C@H]3CC[C@H](C(=O)O)CC3)CC2)cc1C [Compound 2.02, trans-4-((3-(1-(tert-Butyl)-1H-pyrazol-4-yl)phenyl)((trans-4-(4-methoxy-3-methylphenyl)cyclohexyl)methyl)carbamoyl) cyclohexanecarboxylic acid] | 50 to 1000
14 | COc1ccc(C23CCC(CN(c4cccc(-c5cnn(C(C)C)c5)c4)C(=O)[C@H]4CC[C@H](C(=O)O)CC4)(CC2)CC3)cc1C [Compound 4.01, trans-4-((3-(1-Isopropyl-1H-pyrazol-4-yl)phenyl)((4-(4-methoxy-3-methylphenyl)bicyclo[2.2.2]octan-1-yl)methyl)carbamoyl)cyclohexanecarboxylic acid] | ≤ 50
15 | COc1ccc(C23CCC(CN(c4cc(-c5cnn(C(C)(C)C)c5)ccn4)C(=O)[C@H]4CC[C@H](CCC(=O)O)CC4)(CC2)CC3)cc1C [Compound 3.04, trans-3-(4-((4-(1-(tert-Butyl)-1H-pyrazol-4-yl)pyridin-2-yl)((4-(4-methoxy-3-methylphenyl)bicyclo[2.2.2]octan-1-yl)methyl)carbamoyl)cyclohexyl)propanoic acid] | ≤ 50
16 | COc1ccc(C23CCC(CN(c4cccc(-c5nnc(C6CC6)o5)c4)C(=O)[C@H]4CC[C@H](CC(=O)O)CC4)(CC2)CC3)cc1C [Compound 4.30, trans-2-(-4-((3-(5-Cyclopropyl-1,3,4-oxadiazol-2-yl)phenyl)((4-(4-methoxy-3-methylphenyl)bicyclo[2.2.2]octan-1-yl)methyl)carbamoyl)cyclohexyl)acetic acid] | 50 to 1000
17 | COc1ccc(C23CCC(CN(c4cc(-c5cnn(C(C)(C)C)c5)ccn4)C(=O)[C@H]4CC[C@H](CC(=O)O)CC4)(CC2)CC3)cc1C [Compound 4.04, trans-2-(4-((4-(1-(tert-Butyl)-1H-pyrazol-4-yl)pyridin-2-yl)((4-(4-methoxy-3-methylphenyl)bicyclo[2.2.2]octan-1-yl)methyl)carbamoyl)cyclohexyl)acetic acid] | ≤ 50
18 | COc1ccc(C23CCC(CN(c4ccnc(-c5cnn(C(C)C)c5)c4)C(=O)[C@H]4CC[C@H](CC(=O)O)CC4)(CC2)CC3)cc1C (relative stereo) [Compound 4.05, trans-2-(4-((2-(1-Isopropyl-1H-pyrazol-4-yl)pyridin-4-yl)((4-(4-methoxy-3-methylphenyl)bicyclo[2.2.2]octan-1-yl)methyl)carbamoyl)cyclohexyl)acetic acid] | 50 to 1000
19 | COc1ccc([C@H]2CC[C@H](CN(c3cccc(-c4cnn(C(C)(C)C)c4)c3)C(=O)[C@H]3CC[C@H](CCC(=O)O)CC3)CC2)cc1C [Compound 3.03, trans-3-(4-((3-(1-(tert-Butyl)-1H-pyrazol-4-yl)phenyl)((trans-4-(4-methoxy-3-methylphenyl)cyclohexyl)methyl)carbamoyl)cyclohexyl)propanoic acid] | ≤ 50

— patent US20220054469A1, “FARNESOID X RECEPTOR AGONISTS AND USES THEREOF” (Metacrine, Inc., priority 2018, published 2022)
